According to patent US7294485B2, “Rat calcium channel subunits and related probes, cell lines and methods” (Neuromed Pharmaceuticals Ltd., priority 2003, dated 2007):

Key:
α2δ-3 subunit = α2δ-3 subunit (Homo sapiens, UniProt Q8IZS8); details: Marais et al. 2001; cited from earlier work
α2δ-2 subunit = α2δ-2 subunit (Homo sapiens, UniProt Q9NY47); details: Marais et al. 2001; cited from earlier work
[1] = test system: α2δ-3 expression in cultured rat atrial myocytes; details: Chu 2003; cited from earlier work
[2] = test system: rat α1B+β1b Ca2+ channel (N-type calcium channel); experiment: Whole-cell patch clamp current density of rat α1B+β1b channels with coexpressed α2δ-2 in transfected HEK 293 cells; format: cell-based
Description: Human embryonic kidney cells, HEK 293 (ATCC# CRL 1573) or HEK 293 tsA 201, were grown in standard DMEM medium supplemented with 4 mM glutamine and 10% fetal bovine serum. The rat α2δ-2 construct was transfected into HEK 293 or HEK 293 tsA 201 cells with equimolar concentration of the subunits α1B (N-type calcium channel) and β1b, using lipofectamine (Gibco/Invitrogen) according to the manufacturer's instructions. pEGFP was included in the transfected cDNA at 3-5 times less the molar concentration to detect transfected cells and to determine the efficiency of transfection. Transfected cells were incubated at 37° C., 5% CO2, for 6-24 hours and then placed at 29° C., 5% CO2.
After an incubation period of 24 to 72 hours, the culture medium was removed and replaced with an external recording solution containing (in mM) 5 BaCl, 129 CsCl, 1 MgCl2, 10 HEPES, 10 glucose, pH 7.4 with CsOH. Whole-cell patch clamp recordings were made with an Axopatch 200B amplifier (Axon Instruments, USA). […] Signals were acquired at 2.02 kHz and analyzed offline using pClamp 8.2 (Axon Instruments, USA) and Origin (OriginLab Corporation, USA) software. […]
Mean current density was recorded for 4 cells transfected with rat α1B+β1b only and for 7 cells that were also cotransfected with rat brain α2δ-2 subunit. […]

Sequence of α2δ-2 subunit (Q9NY47 19-1150): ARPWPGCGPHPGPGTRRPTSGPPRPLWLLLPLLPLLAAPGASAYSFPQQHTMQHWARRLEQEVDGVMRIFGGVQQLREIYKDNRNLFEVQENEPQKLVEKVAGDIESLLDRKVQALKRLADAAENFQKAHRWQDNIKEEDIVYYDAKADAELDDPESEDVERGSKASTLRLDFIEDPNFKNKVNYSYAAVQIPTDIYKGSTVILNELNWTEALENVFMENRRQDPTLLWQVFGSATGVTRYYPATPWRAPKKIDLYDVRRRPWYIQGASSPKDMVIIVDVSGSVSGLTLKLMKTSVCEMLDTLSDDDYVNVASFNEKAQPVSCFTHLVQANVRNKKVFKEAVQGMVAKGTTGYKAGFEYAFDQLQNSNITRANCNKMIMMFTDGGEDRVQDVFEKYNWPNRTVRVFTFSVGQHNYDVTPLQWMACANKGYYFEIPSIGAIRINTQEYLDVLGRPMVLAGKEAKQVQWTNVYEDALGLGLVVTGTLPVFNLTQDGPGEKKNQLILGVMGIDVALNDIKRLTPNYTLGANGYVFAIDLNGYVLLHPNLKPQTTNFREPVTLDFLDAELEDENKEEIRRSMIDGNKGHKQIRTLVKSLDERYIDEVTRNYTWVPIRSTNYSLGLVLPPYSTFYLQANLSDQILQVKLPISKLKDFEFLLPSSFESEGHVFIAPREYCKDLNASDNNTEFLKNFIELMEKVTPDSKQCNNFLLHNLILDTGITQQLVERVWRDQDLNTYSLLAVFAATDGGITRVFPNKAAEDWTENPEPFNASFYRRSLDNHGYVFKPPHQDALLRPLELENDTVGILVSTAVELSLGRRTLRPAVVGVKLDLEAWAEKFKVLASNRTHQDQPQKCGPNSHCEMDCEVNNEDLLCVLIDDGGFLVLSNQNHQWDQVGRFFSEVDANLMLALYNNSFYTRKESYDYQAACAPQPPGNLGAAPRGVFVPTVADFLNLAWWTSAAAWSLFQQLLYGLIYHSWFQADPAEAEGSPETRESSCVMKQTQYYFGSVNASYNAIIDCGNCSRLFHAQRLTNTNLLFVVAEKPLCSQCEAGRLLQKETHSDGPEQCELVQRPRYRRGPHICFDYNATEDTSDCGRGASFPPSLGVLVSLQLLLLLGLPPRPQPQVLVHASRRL
Sequence of α2δ-3 subunit (Q8IZS8 29-1091): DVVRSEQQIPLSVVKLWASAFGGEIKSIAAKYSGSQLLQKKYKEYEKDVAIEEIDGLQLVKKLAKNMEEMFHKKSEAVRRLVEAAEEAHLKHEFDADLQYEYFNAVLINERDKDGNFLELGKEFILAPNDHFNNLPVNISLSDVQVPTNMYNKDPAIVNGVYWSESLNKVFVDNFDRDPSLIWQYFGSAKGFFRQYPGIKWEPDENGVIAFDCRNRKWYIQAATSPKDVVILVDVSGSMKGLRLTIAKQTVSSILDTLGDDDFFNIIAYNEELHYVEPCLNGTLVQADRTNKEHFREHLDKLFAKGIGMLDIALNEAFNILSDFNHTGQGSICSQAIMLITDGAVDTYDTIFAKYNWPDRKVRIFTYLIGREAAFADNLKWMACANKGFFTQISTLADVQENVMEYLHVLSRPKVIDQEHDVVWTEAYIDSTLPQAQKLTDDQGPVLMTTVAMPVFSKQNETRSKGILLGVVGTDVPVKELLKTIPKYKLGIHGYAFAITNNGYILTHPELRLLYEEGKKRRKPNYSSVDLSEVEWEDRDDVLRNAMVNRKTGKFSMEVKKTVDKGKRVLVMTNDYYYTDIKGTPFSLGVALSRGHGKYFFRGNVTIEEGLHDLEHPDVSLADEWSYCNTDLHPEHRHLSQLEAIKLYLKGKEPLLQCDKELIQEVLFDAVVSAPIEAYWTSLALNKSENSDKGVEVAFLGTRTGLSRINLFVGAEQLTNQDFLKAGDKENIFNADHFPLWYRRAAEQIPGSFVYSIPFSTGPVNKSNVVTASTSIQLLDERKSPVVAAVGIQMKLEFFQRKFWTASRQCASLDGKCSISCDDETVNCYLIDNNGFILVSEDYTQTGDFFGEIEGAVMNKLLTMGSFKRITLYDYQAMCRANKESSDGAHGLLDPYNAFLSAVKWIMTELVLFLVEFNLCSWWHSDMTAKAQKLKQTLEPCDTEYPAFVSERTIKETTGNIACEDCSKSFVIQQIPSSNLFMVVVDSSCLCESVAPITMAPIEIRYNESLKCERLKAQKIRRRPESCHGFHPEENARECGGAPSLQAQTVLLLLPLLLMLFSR

NCC1(CC(=O)O)CCCCC1 [gabapentin]
binding to α2δ-3 subunit (α2δ-3 subunit): not
binding to α2δ-2 subunit (α2δ-2 subunit): binds

IGF-1: IGF-1, reported to stimulate α2δ-3 expression in cultured rat atrial myocytes
effect on α2δ-3 expression [1]: stimulates

B1: rat brain α2δ-2 subunit: α2δ-2 calcium channel subunit present in rat brain, SEQ. ID. NO:3, 1,150 amino acids, expressed from cDNA (protein, listed as Rattus norvegicus)
chain: MAVPARTCGASWPGPVRTARPWPGRGPRPCPDPRGPASGPARPLLLLLPPLLLLPLLTAPGASAYSFPQQHTMQHWARRLEQEIDGVMRIFGGVQQLREIYKDNRNLFDVQENEPQKLVEKVAGDIESLLDRKVQALKRLADAAENFQKAHRWQDNIKEEDIMYYDAKADAELDDPESEDMERGSKTSALRLDFIEEPNFKNKVNYSYTAVQIPTDIYKGSTVILNELNWTEALENVFIENRRQDPTLLWQVFGSATGVTRYYPATPWRAPKKIDLYDVRRRPWYIQGASSPKDMVIIVDVSGSVSGLTLKLMKTSVCEMLDTLSDDDYVNVASFNEKAQPVSCFTHLVQANVRNKKVFKEAVQGMVAKGTTGYKAGFEYAFDQLQNSNITRANCNKMIMMFTDGGEDRVQDVFEKYNWPNRTVRVFTFSVGQHNYDVTPLQWMACTNKGYYFEIPSIGAIRINTQEYLDVLGRPMVLAGKDAKQVQWTNVYEDALGLGLVVTGTLPVFNLTQDGPGEKKNQLILGVMGIDVALNDIKRLTPNYTLGANGYVFAIDLNGYVLLHPNLKPQTTNFREPVTLDFLDAELEDENKEEIRRSMIDEDKGHKQIRTLVKSLDERYIDEVIRNYTWVPIRSTNYSLGLVLPPYSTYYLQANLSDQILQVKYFEFLLPSSFESEGHVFIAPREYCKDLNASDNNTEFLKNFIELMEKVTPDSKQCNNFLLHNLILDTGITQQLVERVWRDQDLNTYSLLAVFAATDGAVTRVFPNKAAEDWTENPEPFNASFYRRSLDNRGYIFKPPHQDSLLRPLELENDTVGVLVSTAVELSLGRRTLRPAVVGVKLDLEAWAEKFKVLASNRTHQDQPQKQCGPSSHCEMDCEVNNEDLLCVLIDDGGFLVLSNQNHQWDQVGRFFSEVDANLMLALYNNSFYTRKESYDYQAACAPQPPGNLGAAPRGVFVPTIADFLNLAWWTSAAAWSLFQQLLYGLIYHSWFQADPAEAEGSPETRESSCVMKQTQYYFGSVNASYNAIIDCGNCSRLFHAQRLTNTNLLFVVAEKPLCSQCEVGRLLQKETHCPADGPEQCELVQRPRYRRGPHICFDYNATEDTSDCGRGTSFPPSLGVLVSLQLLLLLGLPPRPQPQIHSFAASRRL
mean current density (Ipeak/cell capacitance) ([2]; rat α1B+β1b coexpressed with rat brain α2δ-2 in HEK 293 cells, test potential +20 mV from holding −80 mV, 7 cells, mean±S.E.M, without α2δ-2: −7.2±2.3): −30.0±4.1 pA/pF
increase of rat α1B+β1b current density ([2]; with versus without coexpressed α2δ-2, P=0.01): ~4 fold
